Among the data in patent US20070172521A1, “Levetiracetam formulations and methods for their manufacture” (priority 2006, published 2007) are Particle size values, retold here.

This data set in a line: Particle size of the levetiracetam used. Particulars: levetiracetam used in the examples. The data set is classed as physicochemical. Here is the method:
In order to avoid possible handling difficulties, the levetiracetam used preferably comprises particles having a particle size distribution such that d(0.1) is Not Less Than (NLT) about 0.6 μm, d(0.5) is from about 10 to about 30 μm, and d(0.9) is Not More Than (NMT) about 65 μm. In addition, the Bulk Density is NLT 0.2 g/cm^3, and the Tapped Density is NLT 0.35 g/cm^3. […] To minimize the impact of particle size on the levetiracetam release rate, a disintegrant was added intra- and extra-granularly. Although the resulting dissolution rate is somewhat slower than that of the commercial product, the product of present invention is found to be bio-equivalent to the marketed product in both fasting and food bio-equivalent studies.

Regarding `CC[C@@H](C(N)=O)N1CCCC1=O` [levetiracetam, (−)-(S)-(alpha)-ethyl-2-oxo-1-pyrrolidine acetamide], the Particle size result is on record as “about 50 μm”.
